Experimental data taken from patent publication US6964952B2, “Therapeutic composition for broad spectrum dermal disease” (Doosan Corporation, priority 2001, dated 2005).

Key:
protein kinase C (PKC) = experiment: Inhibition of protein kinase C in mouse epidermal cell line Pam212; assay type: cell-based; details: Pam212 cells treated at 100 μM and 400 μM; FIG. 6
Description: An anti-inflammation effect of the cream composition according to the invention was evaluated by assessing inhibition of protein kinase C (PKC) in mouse epidermal cell line (Pam212). The cultured epidermal cells at 2×10^7 cells/ml were treated with phytosphingosine or derivatives thereof at final concentrations of 100 μM, and 400 μM. After washing with PBS, the cells were disrupted using a homogenizer and centrifuged. The supernatant was passed through a DE52 column to obtain a fraction containing PKC. To measure the amount of activated PKC in the fractions, 5 μl each of a PKC coactivation 5× buffer, PKC activation 5× buffer, PKC biotinylated peptide substrate and ^32P-ATP mixture were added to a tube. For a negative control, 5 μl each of a PKC coactivation 5× buffer, Control 5× buffer, PKC biotinylated peptide substrate and ^32P-ATP mixture were measured. To the tubes were added 5 μl of respective PKC fractions. The reaction was performed at 30° C. for 5 min. After terminating the reaction by adding a 12.5 μl stop solution, a 10 μl aliquot was dropped on a SAM^2™ membrane. The membrane was washed 1× with 2M NaCl for 30 sec, 3× with 2M NaCl for 2 min, 4× with a solution of 1% H3PO4 and 2M NaCl for 2 min, and 2× with distilled water for 30 sec, followed by drying. Radioactivity was measured to examine a PKC inhibition effect.

human skin fibroblasts [1] = assay type: cell-based
human skin fibroblasts [2] = experiment: Tracing metabolic pathway in human skin fibroblasts (TLC of lipid extracts); assay type: in vitro ADME; details: 20 μM, 48 hrs
Description: Human skin fibroblasts were employed as the cell line for the study. Phytosphingosine, tetraacetyl phytosphingosine, and acetyl phytosphingosine were respectively dissolved in a mixture of ethanol/dodecane, preparing stock solutions at certain concentrations. When the fibroblasts became confluent in 7 cm diameter culture dishes, 20 μM of the respective test samples was added and cultured in a CO2 incubator for 48 hrs. Cells were harvested and treated according to a common extraction method for sphingolipids. Hydrolysis was performed under basic conditions at 37° C. overnight. The samples were passed through a reverse phase column to remove salts. The desalted lipid extracts were subjected to a TLC analysis on Silica gel 60 G plates (Merck, Germany), using chloroform/methanol/concentrated acetic acid (190/9/1) to elute neutral lipids.

[3] = tested on: full-thickness circular ear wounds; experiment: Wound repair in rabbits (6 mm punch wounds in ears); assay type: in vivo, New Zealand White rabbits; details: rabbit ear wounds; 5, 10, 50 μM, 10 μl every second day; FIG. 3
Description: As an experimental animal model, female New Zealand White rabbits (2 kg in body weight) were employed to evaluate the efficacy of phytosphingosine and derivatives thereof on wound healing.
The rabbits were anesthetized with an intramuscular injection of ketamine (3 to 4 mg/kg). After removing hairs and a horny layer (stratum corneum) inside the both ears, 4 full-thickness circular wounds were created in each ear using a 6 mm-punch biopsy. As a control, PBS solution containing 0.1% BSA was applied to the wound regions at an amount of 10 μl every second day. For test groups, a composition comprising lysophosphatidic acid only, a composition comprising sphingolipid long-chain base only, and a composition comprising a combination thereof were applied each at varying concentrations (5 μM, 10 μM and 50 μM) at a volume of 10 μl every second day. The wounds applied with those agents were sealed with Cathreep (Nichiban Co., Japan). On 4th and 8th day after application, the rabbits were sacrificed, and the wound areas were histologically examined.

Langerhans cells = experiment: Effect on number of Langerhans cells in skin explant; assay type: cell-based; details: 1% test sample
Description: Langerhans cells play a role in mediating immune response of the skin. Treatment of skin disorders related to a hypersensitive immune response can be accomplished by regulating either the number or the antigen-presenting ability of Langerhans cells. To examine the efficacy of sphingolipid long-chain base on the regulation of the number of Langerhans cells, a test was performed as follows. Each skin explant was applied with a 1% test sample containing sphingolipid.

| Molecule | PKC inhibition effect (protein kinase C (PKC)) | Cytotoxicity relative to other sphingolipid long-chain bases (human skin fibroblasts [1]) | Metabolic conversion within the cells (human skin fibroblasts [2]) | Rates of wound healing (%) compared to untreated control group [3] | Efficacy on reducing the number of Langerhans cells (comparison) (Langerhans cells) |
| --- | --- | --- | --- | --- | --- |
| tetraacetyl phytosphingosine | excellent PKC inhibition effects | lower cytotoxicity than other sphingolipid long-chain bases | converted to C2-phytoceramide | – | – |
| lysophosphatidic acid | – | – | – | highly accelerate the rates of wound healing | – |
| CCCCCCCCCCCCCC[C@@H](O)[C@@H](O)[C@@H](N)CO [phytosphingosine] | excellent PKC inhibition effects | – | – | highly accelerate the rates of wound healing | greater than that of tetraacetyl phytosphingosine |
| CCCCCCCCCCCCCC[C@@H](O)[C@@H](O)[C@H](CO)NC(C)=O [N-acetyl phytosphingosine] | excellent PKC inhibition effects | – | – | – | – |
